From paper PMC8163982, “Partial agonism improves the anti-hyperglycaemic efficacy of an oxyntomodulin-derived GLP-1R/GCGR co-agonist” (Molecular Metabolism, 2021)
Where a SMILES comes first, the peptide text is derived from it. [ ]: non-standard residue; d: D form. Aib = CC(C)(N)C(=O)O

What was measured:
Type in all cases: cell-based
GCGR [1] = target: T1, GCGR (Homo sapiens, UniProt P47871); experiment: cAMP production (HTRF) in PathHunter CHO-K1 cells expressing GCGR; parameters: expressed in transfected cells; conditions: 30 min, mean ± SEM, n = 6; for EC50: 37 °C, serum-free medium, no phosphodiesterase inhibitors, read-out: GCGR CAMP (CHO–K1) pEC50 (converted); for Emax: CHO-K1, normalised to globally fitted maximum response
T1 sequence (P47871 26-477): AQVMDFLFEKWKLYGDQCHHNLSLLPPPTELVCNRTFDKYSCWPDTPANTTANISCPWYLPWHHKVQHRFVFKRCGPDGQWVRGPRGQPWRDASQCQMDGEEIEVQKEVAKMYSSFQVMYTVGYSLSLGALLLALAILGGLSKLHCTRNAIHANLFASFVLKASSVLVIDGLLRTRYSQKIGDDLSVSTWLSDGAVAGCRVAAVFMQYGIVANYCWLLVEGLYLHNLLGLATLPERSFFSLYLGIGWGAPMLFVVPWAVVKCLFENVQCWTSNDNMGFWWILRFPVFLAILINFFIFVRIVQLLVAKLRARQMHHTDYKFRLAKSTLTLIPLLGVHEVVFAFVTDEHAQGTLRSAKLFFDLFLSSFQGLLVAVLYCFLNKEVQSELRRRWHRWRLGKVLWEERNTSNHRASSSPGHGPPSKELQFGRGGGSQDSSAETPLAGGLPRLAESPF
Protocol: (§1) HEK293T cells were maintained in DMEM supplemented with 10% FBS and 1% penicillin/streptomycin. PathHunter CHO–K1-βarr2-EA cells stably expressing human GLP-1R, GCGR, or GIPR and PathHunter CHO–K1-βarr1-EA cells stably expressing GCGR were obtained from DiscoverX and maintained in Ham's F12 medium with 10% FBS and 1% penicillin/streptomycin. Stable HEK293-SNAP-GLP-1R cells were maintained in DMEM supplemented with 10% FBS, 1% penicillin/streptomycin, and 1 mg/ml of G418. INS-1 832/3 cells, a gift from Professor Chris Newgard (Duke University), were maintained in RPMI with 11 mM of glucose supplemented with 10% FBS, 10 mM of HEPES, 1 mM of pyruvate, 50 μM of β-mercaptoethanol, and 1% penicillin/streptomycin. Huh7 cells stably expressing human GCGR (Huh7-GCGR) were maintained in DMEM supplemented with 10% FBS, 1 mg/ml of G418, and 1% penicillin/streptomycin.
(§2) PathHunter cells were stimulated with the indicated concentration of agonist for 30 min at 37 °C in serum-free medium without phosphodiesterase inhibitors. INS-1 832/3 cells were stimulated with the indicated concentration of agonist for 10 min at 37 °C in serum-free medium with 100 μM of 3-isobutyl-1-methylxanthine (IBMX). Primary dispersed mouse islet cells prepared by triturating intact islets in 0.05% trypsin/EDTA for 3 min at 37 °C were stimulated with the indicated concentration of agonist for 5 min at 37 °C in serum-free medium with 11 mM of glucose and 500 μM of IBMX. Primary mouse hepatocytes were stimulated in serum-free medium with 100 μM of IBMX for 10 min or 16 h in serum-free medium with 100 μM of IBMX added for the final 10 min of incubation. Huh7-GCGR cells were stimulated in serum-free medium without phosphodiesterase inhibitors for 10 min or for 16 h in serum-free medium. Where relevant, forskolin (10 μM) was added as a positive or normalisation control. At the end of each incubation, cAMP was then assayed by HTRF (Cisbio cAMP Dynamic 2) and concentration-response curves were constructed with 3-parameter curve fitting using Prism 8.0.

GCGR [2] = target: T1, GCGR; experiment: NanoBiT mini-Gs recruitment to GCGR-SmBiT in HEK293T cells; parameters: expressed in transfected cells; host or cells: HEK293T; conditions: SRB103 pair, mean ± SEM, n = 6; for Emax: HEK-293T, normalised to full agonist response, read-out: GCGR mini-Gs (HEK293T) Emax; for EC50: 3-parameter fit, read-out: GCGR mini-Gs (HEK293T) pEC50 (converted)
GCGR [3] = target: T1, GCGR; experiment: cAMP accumulation in Huh7-GCGR cells; parameters: expressed in transfected cells; host or cells: Huh7; conditions: mean ± SEM, n = 6; for Emax: expressed relative to 10 μM forskolin response
Protocol: as §1, §2

human GIPR = target: T2, human GIPR (Homo sapiens, UniProt P48546); experiment: cAMP production (HTRF) in PathHunter CHO-K1 cells expressing GIPR; conditions: 30 min, mean ± SEM, n = 6; for EC50: 37 °C, serum-free medium, no phosphodiesterase inhibitors, read-out: GIPR CAMP (CHO–K1) pEC50 (converted); for Emax: CHO-K1, normalised to globally fitted maximum response
T2 construct: host or cells: PathHunter CHO-K1-βarr2-EA
T2 sequence (P48546 22-466): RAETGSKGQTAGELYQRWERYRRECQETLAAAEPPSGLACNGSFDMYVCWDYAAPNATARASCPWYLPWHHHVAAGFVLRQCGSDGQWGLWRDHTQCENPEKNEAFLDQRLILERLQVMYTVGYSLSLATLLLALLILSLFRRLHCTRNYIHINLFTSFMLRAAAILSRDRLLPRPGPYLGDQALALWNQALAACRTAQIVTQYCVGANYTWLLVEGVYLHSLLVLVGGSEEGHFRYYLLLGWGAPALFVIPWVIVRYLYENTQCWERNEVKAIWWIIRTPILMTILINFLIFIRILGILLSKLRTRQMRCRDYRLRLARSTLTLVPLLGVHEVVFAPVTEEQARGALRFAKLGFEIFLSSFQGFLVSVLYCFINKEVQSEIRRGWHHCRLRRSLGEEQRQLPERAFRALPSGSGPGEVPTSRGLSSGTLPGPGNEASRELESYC
Protocol: as §1, §2

SNAP-GLP-1R [4] = target: T3, SNAP-GLP-1R (Homo sapiens, UniProt P43220); experiment: GLP-1R internalisation by DERET in HEK293-SNAP-GLP-1R cells; conditions: average response of last 3 time points of 30 min, mean ± SEM, n = 5, read-out: DERET (HEK293-SNAP-GLP-1R) pEC50 (converted)
T3 construct: expressed in transfected cells
T3 sequence (P43220 24-463): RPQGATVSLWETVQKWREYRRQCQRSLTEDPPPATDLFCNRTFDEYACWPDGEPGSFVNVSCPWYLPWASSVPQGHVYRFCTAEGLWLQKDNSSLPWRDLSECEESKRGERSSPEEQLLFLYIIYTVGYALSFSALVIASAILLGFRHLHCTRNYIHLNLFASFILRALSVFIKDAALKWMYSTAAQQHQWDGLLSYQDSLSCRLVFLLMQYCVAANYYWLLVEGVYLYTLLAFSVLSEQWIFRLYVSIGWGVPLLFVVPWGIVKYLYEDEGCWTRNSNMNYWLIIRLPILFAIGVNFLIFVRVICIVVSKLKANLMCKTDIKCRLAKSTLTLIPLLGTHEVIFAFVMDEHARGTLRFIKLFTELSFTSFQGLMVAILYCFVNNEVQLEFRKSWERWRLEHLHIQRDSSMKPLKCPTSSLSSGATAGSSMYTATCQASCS
Protocol: The assay was performed as previously described. HEK-SNAP-GLP-1R cells were labelled using 40 nM of SNAP-Lumi4-Tb in complete medium for 60 min at room temperature. After washing, the cells were resuspended in HBSS containing 24 μM of fluorescein and dispensed into 96-well white plates. A baseline read was serially recorded for 5 min using a FlexStation 3 instrument at 37 °C in TR-FRET mode using the following settings: λex at 340 nm, λem at 520 and 620 nm, auto cut-off, delay of 400 μs, and integration time of 1500 μs? Ligands were then added, after which the signals were repeatedly recorded for 30 min. The fluorescence signals were expressed ratiometrically after first subtracting signals from wells containing 24 μM of fluorescein but no cells. Internalisation was quantified as the AUC relative to the individual well baseline, and concentration-response curves were generated with Prism 8.0.

SNAP-GLP-1R [5] = target: T3, SNAP-GLP-1R; experiment: High content imaging assay for SNAP-GLP-1R internalisation; conditions: high content analysis, mean ± SEM, n = 4, read-out: HCA assay (HEK293-SNAP-GLP-1R) pEC50 (converted)
Protocol: The assay was adapted from a previously described method. HEK293T cells were seeded in black clear-bottom plates coated with 0.1% poly-D-lysine and assayed 24 h after transfection with SNAP-tagged GLP-1R or GCGR plasmid DNA (0.1 μg per well). The cells were labelled with the cleavable SNAP-tag probe BG-S-S-549 (a gift from New England Biolabs) in complete medium for 30 min at room temperature. After washing, fresh serum-free medium ± agonist was added. At the end of incubation, the medium was removed and the wells were treated with for 5 min at 4 °C with Mesna (100 mM in alkaline TNE buffer at a pH of 8.6) to remove BG-S-S-549 bound to residual surface receptors without affecting the internalised receptor population or with alkaline TNE buffer alone. After washing, phase contrast and epifluorescence cellular imaging at 20× magnification was performed, followed by processing as previously described to quantify the amount of internalised receptor from the fluorescence intensity readings.

[6] = 16 h, read-out: Huh7-GCGR cAMP,16 h Emax
[7] = 16 h, read-out: Huh7-GCGR cAMP,16 h pEC50 (converted)
[8] = Huh7-GCGR cAMP, 10 min pEC50, 10 min, no phosphodiesterase inhibitors
[9] = read-out: Huh7-GCGR cAMP, 10 min Emax, 10 min

With CC[C@H](C)[C@H](NC(=O)[C@H](Cc1ccccc1)NC(=O)[C@H](CCC(=O)O)NC(=O)[C@H](CCC(N)=O)NC(=O)[C@H](C)NC(=O)[C@H](CCCNC(=N)N)NC(=O)[C@H](CCCCN)NC(=O)[C@H](C)NC(=O)[C@H](CC(=O)O)NC(=O)[C@H](CC(C)C)NC(=O)[C@H](Cc1ccc(O)cc1)NC(=O)[C@H](CCCCN)NC(=O)[C@H](CO)NC(=O)[C@H](Cc1ccc(O)cc1)NC(=O)[C@H](CC(=O)O)NC(=O)[C@H](CO)NC(=O)[C@@H](NC(=O)[C@H](Cc1ccccc1)NC(=O)[C@@H](NC(=O)CNC(=O)[C@H](CCC(N)=O)NC(=O)C(C)(C)NC(=O)[C@@H](N)Cc1c[nH]cn1)[C@@H](C)O)[C@@H](C)O)C(=O)N[C@@H](CCC(=O)O)C(=O)N[C@@H](Cc1c[nH]c2ccccc12)C(=O)N[C@@H](CC(C)C)C(=O)N[C@@H](CC(C)C)C(=O)N[C@@H](C)C(=O)NCC(=O)N[C@@H](Cc1c[nH]cn1)C(=O)N[C@@H](Cc1c[nH]cn1)C(=O)N[C@@H](Cc1c[nH]cn1)C(=O)N[C@@H](Cc1c[nH]cn1)C(=O)N[C@@H](Cc1c[nH]cn1)C(=O)N1CCC[C@H]1C(=O)N[C@@H](CO)C(=O)N[C@@H](Cc1c[nH]c2ccccc12)C(=O)O [SRB103Q] (H-H[Aib]QGTFTSDYSKYLDAKRAQEFIEWLLAGHHHHHPSW-OH) as the molecule, how does the EC50 (GCGR [1]) read?
Its EC50 is 0.398 nM.

What about the Emax (GCGR [1]) of the same molecule?
Its Emax is 103 ± 4%.

And the Emax (GCGR [2])?
Its Emax is 83 ± 1%.

What about the EC50 (GCGR [2]) of the same molecule?
Its EC50 is 20 nM.

What about the Emax (GCGR [3]; [6]) of the same molecule?
The Emax was 284 ± 38%.

What about the EC50 (GCGR [3]; [7]) of the same molecule?
The EC50 was 0.2 nM.

And the EC50 (GCGR [3]; [8])?
Its EC50 is 0.0158 nM.

What about the Emax (GCGR [3]; [9]) of the same molecule?
The Emax was 27 ± 4%.

What about the EC50 (human GIPR) of the same molecule?
Its EC50 is 100 nM.

And the Emax (human GIPR)?
Its Emax is 92 ± 9%.

What about the EC50 (SNAP-GLP-1R [4]) of the same molecule?
The EC50 was 20 nM.

And the EC50 (SNAP-GLP-1R [5])?
Its EC50 is 2.51 nM.

How did the EC50 (GCGR [1]) turn out when CC[C@H](C)[C@H](NC(=O)[C@H](Cc1ccccc1)NC(=O)[C@H](CCC(=O)O)NC(=O)[C@H](CCC(N)=O)NC(=O)[C@H](C)NC(=O)[C@H](CCCNC(=N)N)NC(=O)[C@H](CCCCN)NC(=O)[C@H](C)NC(=O)[C@H](CC(=O)O)NC(=O)[C@H](CC(C)C)NC(=O)[C@H](Cc1ccc(O)cc1)NC(=O)[C@H](CCCCN)NC(=O)[C@H](CO)NC(=O)[C@H](Cc1ccc(O)cc1)NC(=O)[C@H](CC(=O)O)NC(=O)[C@H](CO)NC(=O)[C@@H](NC(=O)[C@H](Cc1ccccc1)NC(=O)[C@@H](NC(=O)CNC(=O)[C@H](Cc1c[nH]cn1)NC(=O)C(C)(C)NC(=O)[C@@H](N)Cc1c[nH]cn1)[C@@H](C)O)[C@@H](C)O)C(=O)N[C@@H](CCC(=O)O)C(=O)N[C@@H](Cc1c[nH]c2ccccc12)C(=O)N[C@@H](CC(C)C)C(=O)N[C@@H](CC(C)C)C(=O)N[C@@H](C)C(=O)NCC(=O)N[C@@H](Cc1c[nH]cn1)C(=O)N[C@@H](Cc1c[nH]cn1)C(=O)N[C@@H](Cc1c[nH]cn1)C(=O)N[C@@H](Cc1c[nH]cn1)C(=O)N[C@@H](Cc1c[nH]cn1)C(=O)N1CCC[C@H]1C(=O)N[C@@H](CO)C(=O)N[C@@H](Cc1c[nH]c2ccccc12)C(=O)O [SRB103H] (H-H[Aib]HGTFTSDYSKYLDAKRAQEFIEWLLAGHHHHHPSW-OH) was run?
Its EC50 is 0.251 nM.

And the Emax (GCGR [1])?
Its Emax is 107 ± 5%.

And the Emax (GCGR [2])?
The Emax was 100%.

What about the EC50 (GCGR [2]) of the same molecule?
The EC50 was 7.94 nM.

What about the Emax (GCGR [3]; [6]) of the same molecule?
Its Emax is 173 ± 11%.

What about the EC50 (GCGR [3]; [7]) of the same molecule?
The EC50 was 0.251 nM.

And the EC50 (GCGR [3]; [8])?
The EC50 was 0.0316 nM.

What about the Emax (GCGR [3]; [9]) of the same molecule?
Its Emax is 27 ± 4%.

What about the EC50 (human GIPR) of the same molecule?
Its EC50 is 25.1 nM.

What about the Emax (human GIPR) of the same molecule?
Its Emax is 101 ± 5%.

And the EC50 (SNAP-GLP-1R [4])?
Its EC50 is 20 nM.

What about the EC50 (SNAP-GLP-1R [5]) of the same molecule?
Its EC50 is 7.94 nM.
